Measured values: PubChem BioAssay (NCI)
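96-well plates; 48 h exposure; 5 concentrations. Endpoints by linear interpolation between flanking doses. Not reached: highest tested concentration assigned. At the GI50, growth is halved. TGI is the concentration that stops growth completely.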

Assays:
Experiment in all cases: NCI anticancer screen, dose series, 48 h
SR leukemia = tested on: SR leukemia
OVCAR-8 ovarian = tested on: OVCAR-8 ovarian
DU-145 prostate = tested on: DU-145 prostate
MDA-MB-231 breast = tested on: MDA-MB-231 breast
SW-620 colon = tested on: SW-620 colon
OVCAR-4 ovarian = tested on: OVCAR-4 ovarian
HOP-92 NSCLC = tested on: HOP-92 NSCLC
HOP-62 NSCLC = tested on: HOP-62 NSCLC
HS 578T breast = tested on: HS 578T breast
NCI/ADR-RES ovarian = tested on: NCI/ADR-RES ovarian
CCRF-CEM leukemia = tested on: CCRF-CEM leukemia
K-562 leukemia = tested on: K-562 leukemia
SNB-19 CNS = tested on: SNB-19 CNS
UO-31 renal = tested on: UO-31 renal
SN12C renal = tested on: SN12C renal
SF-539 CNS = tested on: SF-539 CNS
HCT-116 colon = tested on: HCT-116 colon
SF-295 CNS = tested on: SF-295 CNS
SK-OV-3 ovarian = tested on: SK-OV-3 ovarian
SNB-75 CNS = tested on: SNB-75 CNS
EKVX NSCLC = tested on: EKVX NSCLC
NCI-H522 lung = tested on: NCI-H522 lung
MDA-MB-435 = tested on: MDA-MB-435
MCF7 breast = tested on: MCF7 breast
A498 renal = tested on: A498 renal
HT29 colon = tested on: HT29 colon
SK-MEL-2 melanoma = tested on: SK-MEL-2 melanoma
MALME-3M melanoma = tested on: MALME-3M melanoma
SK-MEL-28 melanoma = tested on: SK-MEL-28 melanoma
NCI-H460 lung = tested on: NCI-H460 lung
PC-3 prostate = tested on: PC-3 prostate
OVCAR-3 ovarian = tested on: OVCAR-3 ovarian
KM12 colon = tested on: KM12 colon
OVCAR-5 ovarian = tested on: OVCAR-5 ovarian
T-47D breast = tested on: T-47D breast
TK-10 renal = tested on: TK-10 renal
HCT-15 colon = tested on: HCT-15 colon
HL-60(TB) leukemia = tested on: HL-60(TB) leukemia
IGROV1 ovarian = tested on: IGROV1 ovarian
UACC-257 melanoma = tested on: UACC-257 melanoma
A549 NSCLC = tested on: A549 NSCLC
RPMI-8226 leukemia = tested on: RPMI-8226 leukemia
LOX IMVI melanoma = tested on: LOX IMVI melanoma
MOLT-4 leukemia = tested on: MOLT-4 leukemia
COLO 205 colon = tested on: COLO 205 colon
SK-MEL-5 melanoma = tested on: SK-MEL-5 melanoma
NCI-H23 lung = tested on: NCI-H23 lung
HCC-2998 colon = tested on: HCC-2998 colon
M14 melanoma = tested on: M14 melanoma
U251 CNS = tested on: U251 CNS
NCI-H226 lung = tested on: NCI-H226 lung
UACC-62 melanoma = tested on: UACC-62 melanoma
RXF 393 renal = tested on: RXF 393 renal
786-0 renal = tested on: 786-0 renal
BT-549 breast = tested on: BT-549 breast
SF-268 CNS = tested on: SF-268 CNS

## Cn1ncc2cc(-c3cnc(N)c(Cl)c3N3CCC4(CCNC4=O)CC3)ccc21
SR leukemia
  GI50: 6.4 µM
  TGI: 57.2 µM
OVCAR-8 ovarian
  GI50: 39.1 µM
  TGI: > 100 µM
DU-145 prostate
  GI50: 52.1 µM
  TGI: > 100 µM
MDA-MB-231 breast
  GI50: 23 µM
  TGI: 86.3 µM
SW-620 colon
  GI50: 21.3 µM
  TGI: > 100 µM
OVCAR-4 ovarian
  GI50: 38.9 µM
  TGI: > 100 µM
HOP-92 NSCLC
  GI50: 13 µM
  TGI: 82.4 µM
HOP-62 NSCLC
  GI50: 21.6 µM
  TGI: > 100 µM
HS 578T breast
  GI50: 19.8 µM
  TGI: 89.5 µM
NCI/ADR-RES ovarian
  GI50: 32.8 µM
  TGI: > 100 µM
CCRF-CEM leukemia
  GI50: 36.9 µM
  TGI: > 100 µM
K-562 leukemia
  GI50: 45.5 µM
  TGI: > 100 µM
SNB-19 CNS
  GI50: 94.2 µM
  TGI: > 100 µM
UO-31 renal
  GI50: 17.7 µM
  TGI: > 100 µM
SN12C renal
  GI50: 32.7 µM
  TGI: > 100 µM
SF-539 CNS
  GI50: 14.1 µM
  TGI: > 100 µM
HCT-116 colon
  GI50: 37.4 µM
  TGI: > 100 µM
SF-295 CNS
  GI50: 31.2 µM
  TGI: > 100 µM
SK-OV-3 ovarian
  GI50: 31.5 µM
  TGI: > 100 µM
SNB-75 CNS
  GI50: 17 µM
  TGI: 77.8 µM
EKVX NSCLC
  GI50: 12.9 µM
  TGI: > 100 µM
NCI-H522 lung
  GI50: 60.7 µM
  TGI: > 100 µM
MDA-MB-435
  GI50: 45.4 µM
  TGI: > 100 µM
MCF7 breast
  GI50: 24.6 µM
  TGI: > 100 µM
A498 renal
  GI50: 11.2 µM
  TGI: 32.4 µM
HT29 colon
  GI50: 46.2 µM
  TGI: > 100 µM
SK-MEL-2 melanoma
  GI50: 39.8 µM
  TGI: > 100 µM
MALME-3M melanoma
  GI50: 37.5 µM
  TGI: > 100 µM
SK-MEL-28 melanoma
  GI50: 33 µM
  TGI: > 100 µM
NCI-H460 lung
  GI50: 59 µM
  TGI: > 100 µM
PC-3 prostate
  GI50: 42.1 µM
  TGI: > 100 µM
OVCAR-3 ovarian
  GI50: 42.9 µM
  TGI: > 100 µM
KM12 colon
  GI50: 32.3 µM
  TGI: > 100 µM
OVCAR-5 ovarian
  GI50: > 100 µM
  TGI: > 100 µM
T-47D breast
  GI50: 15.7 µM
  TGI: 84.2 µM
TK-10 renal
  GI50: 36.1 µM
  TGI: > 100 µM
HCT-15 colon
  GI50: 22.7 µM
  TGI: > 100 µM
HL-60(TB) leukemia
  GI50: 16.8 µM
  TGI: 42.6 µM
IGROV1 ovarian
  GI50: 14.8 µM
  TGI: > 100 µM
UACC-257 melanoma
  GI50: 31.2 µM
  TGI: 66.1 µM
A549 NSCLC
  GI50: > 100 µM
  TGI: > 100 µM
RPMI-8226 leukemia
  GI50: 16 µM
  TGI: 95.5 µM
LOX IMVI melanoma
  GI50: 33.1 µM
  TGI: > 100 µM
MOLT-4 leukemia
  GI50: 20.7 µM
  TGI: > 100 µM
COLO 205 colon
  GI50: 11.9 µM
  TGI: > 100 µM
SK-MEL-5 melanoma
  GI50: 11.3 µM
  TGI: 23.8 µM
NCI-H23 lung
  GI50: 46.7 µM
  TGI: > 100 µM
HCC-2998 colon
  GI50: > 100 µM
  TGI: > 100 µM
M14 melanoma
  GI50: 41.4 µM
  TGI: > 100 µM
U251 CNS
  GI50: 43.7 µM
  TGI: > 100 µM
NCI-H226 lung
  GI50: 38.1 µM
  TGI: > 100 µM
UACC-62 melanoma
  GI50: 30.7 µM
  TGI: > 100 µM
RXF 393 renal
  GI50: 8.11 µM
  TGI: 54.3 µM
786-0 renal
  GI50: 11.2 µM
  TGI: > 100 µM
BT-549 breast
  GI50: 29.2 µM
  TGI: > 100 µM
SF-268 CNS
  GI50: 21.3 µM
  TGI: > 100 µM
